In article PMC10485003, “Antibiotic hyper-resistance in a class I aminoacyl-tRNA synthetase with altered active site signature motif” (Nature Communications, 2023):
Where “and” joins values, the source holds several entries; their conditions need not be identical. Identical values can stand only once.

Target: T1, mut-GVHH PmIleRS2 (Priestia megaterium, UniProt A0A0B6AVD3, G56H/H54G)
T1 sequence (A0A0B6AVD3 1-1032 H54G/G56H): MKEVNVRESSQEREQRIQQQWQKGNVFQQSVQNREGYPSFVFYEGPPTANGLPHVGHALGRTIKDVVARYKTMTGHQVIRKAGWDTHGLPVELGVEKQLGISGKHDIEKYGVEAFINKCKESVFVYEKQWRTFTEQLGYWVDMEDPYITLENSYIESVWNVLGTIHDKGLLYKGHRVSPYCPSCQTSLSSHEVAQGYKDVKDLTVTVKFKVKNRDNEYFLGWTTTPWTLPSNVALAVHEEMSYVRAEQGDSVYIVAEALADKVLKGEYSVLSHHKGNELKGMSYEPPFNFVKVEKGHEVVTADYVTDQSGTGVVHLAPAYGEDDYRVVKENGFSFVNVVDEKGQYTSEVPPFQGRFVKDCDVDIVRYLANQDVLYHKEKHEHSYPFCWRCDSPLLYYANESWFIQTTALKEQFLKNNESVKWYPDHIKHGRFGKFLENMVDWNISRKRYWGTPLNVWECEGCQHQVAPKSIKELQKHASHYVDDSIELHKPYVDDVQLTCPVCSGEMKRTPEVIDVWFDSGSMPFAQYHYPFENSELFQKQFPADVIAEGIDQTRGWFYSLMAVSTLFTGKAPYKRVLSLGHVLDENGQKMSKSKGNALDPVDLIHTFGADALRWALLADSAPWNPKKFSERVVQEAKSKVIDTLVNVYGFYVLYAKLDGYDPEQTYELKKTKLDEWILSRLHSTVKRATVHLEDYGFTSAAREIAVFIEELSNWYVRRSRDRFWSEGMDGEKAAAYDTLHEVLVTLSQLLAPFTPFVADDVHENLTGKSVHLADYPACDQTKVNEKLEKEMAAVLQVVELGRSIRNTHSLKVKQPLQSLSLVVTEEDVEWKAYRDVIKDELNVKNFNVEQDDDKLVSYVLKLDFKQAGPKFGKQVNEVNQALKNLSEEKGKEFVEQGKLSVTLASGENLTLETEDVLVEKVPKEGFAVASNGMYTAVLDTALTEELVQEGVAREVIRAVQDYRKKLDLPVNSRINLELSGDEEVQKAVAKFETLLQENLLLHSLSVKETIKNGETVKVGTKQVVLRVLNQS
Experiment: ATP-PPi exchange assay, mupirocin inhibition of amino acid activation
Type: biochemical, Priestia (Bacillus) megaterium
Procedure: L-Ile and ATP concentrations ranged from 1/10 KM to 10 KM values. When measuring the KI towards one of the substrates, the other was held in saturation (concentrations at least 10 KM). The aliquots of the reaction mixture (1–2.5 μl) were quenched in 2 volumes of 500 mM NaOAc pH = 4.5, 0.1% SDS, and formed ^32P-ATP was separated from the remaining ^32P-PPi by thin-layer chromatography on Polygram CEL 300 PEI UV254 TLC plates (Macherey-Nagel, cat: 801063) using 750 mM KH2PO4 pH=3.5, 4 M urea buffer. Visualization and quantification of the signals was performed using a Typhoon Phosphoimager 5 (General Electric) and accompanying ImageQuant™ TL software (SV: 10.2). The kinetic constants were determined using a global fit option of the competitive inhibition model of GraphPad Prism 6 software (SV: 6.01). All experiments were performed in triplicates. The kcat was determined by dividing the maximal velocity, VM, with the used enzyme concentration. […]
variable substrate (ATP or Ile) was varied in the range of 0.1 KM to 10 KM. The other substrate (Ile or ATP) was kept in excess at 5 to 10 KM. Data were globally fitted to the competitive inhibition model using GraphPad prism 6.01 for Windows software. The values represent the average value ± SD of three independent experiments. Source data are provided as a Source Data file.

C/C(=C\C(=O)OCCCCCCCCC(=O)O)C[C@@H]1OC[C@H](C[C@@H]2O[C@H]2[C@@H](C)[C@H](C)O)[C@@H](O)[C@H]1O [mupirocin]
vo (c (mupirocin) = 5.0 mM, c (Ile) 250.0 μM, Replica 3): 0.00839 mM/min
vo (c (mupirocin) = 5.0 mM, c (Ile) 500.0 μM, Replica 1): 0.01582 mM/min
vo (c (mupirocin) = 5.0 mM, c (Ile) 500.0 μM, Replica 2): 0.01771 mM/min
vo (c (mupirocin) = 5.0 mM, c (Ile) 500.0 μM, Replica 3): 0.01671 mM/min
vo (c (mupirocin) = 5.0 mM, c (Ile) 1000.0 μM, Replica 1): 0.02937 mM/min
vo (c (mupirocin) = 5.0 mM, c (Ile) 1000.0 μM, Replica 2): 0.03008 mM/min
vo (c (mupirocin) = 5.0 mM, c (Ile) 1000.0 μM, Replica 3): 0.02918 mM/min
vo (c (mupirocin) = 5.0 mM, c (Ile) 1500.0 μM, Replica 1): 0.03962 mM/min
vo (c (mupirocin) = 5.0 mM, c (Ile) 1500.0 μM, Replica 2): 0.03913 mM/min
vo (c (mupirocin) = 5.0 mM, c (Ile) 1500.0 μM, Replica 3): 0.04025 mM/min
vo (c (mupirocin) = 10.0 mM, c (Ile) 100.0 μM, Replica 1): 0.00192 mM/min
vo (c (mupirocin) = 10.0 mM, c (Ile) 100.0 μM, Replica 2): 0.00188 mM/min
vo (c (mupirocin) = 10.0 mM, c (Ile) 100.0 μM, Replica 3): 0.00205 mM/min
vo (c (mupirocin) = 10.0 mM, c (Ile) 250.0 μM, Replica 1): 0.00384 mM/min
vo (c (mupirocin) = 10.0 mM, c (Ile) 250.0 μM, Replica 2): 0.00477 mM/min
vo (c (mupirocin) = 10.0 mM, c (Ile) 250.0 μM, Replica 3): 0.00429 mM/min
vo (c (mupirocin) = 10.0 mM, c (Ile) 500.0 μM, Replica 1): 0.00975 mM/min
vo (c (mupirocin) = 10.0 mM, c (Ile) 500.0 μM, Replica 2): 0.01055 mM/min
vo (c (mupirocin) = 10.0 mM, c (Ile) 500.0 μM, Replica 3): 0.01023 mM/min
vo (c (mupirocin) = 10.0 mM, c (Ile) 1000.0 μM, Replica 1): 0.01549 mM/min
vo (c (mupirocin) = 10.0 mM, c (Ile) 1000.0 μM, Replica 2): 0.01681 mM/min
vo (c (mupirocin) = 10.0 mM, c (Ile) 1000.0 μM, Replica 3): 0.01726 mM/min
vo (c (mupirocin) = 10.0 mM, c (Ile) 1500.0 μM, Replica 1): 0.02248 mM/min
vo (c (mupirocin) = 10.0 mM, c (Ile) 1500.0 μM, Replica 2): 0.02398 mM/min
vo (c (mupirocin) = 10.0 mM, c (Ile) 1500.0 μM, Replica 3): 0.02428 mM/min
initial velocity vo (c(mupirocin) 0.5 mM, c(ATP) 0.5 mM): 0.00635 mM/min and 0.00811 mM/min
initial velocity vo (c(mupirocin) 0.5 mM, c(ATP) 1.0 mM): 0.01441 mM/min and 0.01486 mM/min and 0.01387 mM/min
initial velocity vo (c(mupirocin) 0.5 mM, c(ATP) 2.5 mM): 0.03283 mM/min and 0.03264 mM/min and 0.03523 mM/min
initial velocity vo (c(mupirocin) 0.5 mM, c(ATP) 5.0 mM): 0.05375 mM/min and 0.05359 mM/min and 0.05506 mM/min
initial velocity vo (c(mupirocin) 0.5 mM, c(ATP) 10.0 mM): 0.07349 mM/min and 0.07632 mM/min and 0.07609 mM/min
initial velocity vo (c(mupirocin) 0.5 mM, c(ATP) 20.0 mM): 0.09482 mM/min and 0.09569 mM/min and 0.09403 mM/min
initial velocity vo (c(mupirocin) 0.5 mM, c(Ile) 50.0 μM): 0.00742 mM/min and 0.00851 mM/min and 0.00786 mM/min
initial velocity vo (c(mupirocin) 1.0 mM, c(ATP) 0.5 mM): 0.00716 mM/min and 0.0055 mM/min and 0.00625 mM/min
initial velocity vo (c(mupirocin) 1.0 mM, c(ATP) 1.0 mM): 0.01194 mM/min and 0.01202 mM/min and 0.01221 mM/min
initial velocity vo (c(mupirocin) 1.0 mM, c(ATP) 2.5 mM): 0.0252 mM/min and 0.02429 mM/min and 0.02403 mM/min
initial velocity vo (c(mupirocin) 1.0 mM, c(ATP) 5.0 mM): 0.04205 mM/min and 0.0434 mM/min and 0.0426 mM/min
initial velocity vo (c(mupirocin) 1.0 mM, c(ATP) 10.0 mM): 0.06359 mM/min and 0.06579 mM/min and 0.06457 mM/min
initial velocity vo (c(mupirocin) 1.0 mM, c(ATP) 20.0 mM): 0.08534 mM/min and 0.08763 mM/min and 0.08559 mM/min
initial velocity vo (c(mupirocin) 1.0 mM, c(Ile) 50.0 μM): 0.00713 mM/min and 0.00706 mM/min and 0.00704 mM/min
initial velocity vo (c(mupirocin) 2.5 mM, c(ATP) 1.0 mM): 0.00558 mM/min and 0.0055 mM/min and 0.00551 mM/min
initial velocity vo (c(mupirocin) 2.5 mM, c(ATP) 2.5 mM): 0.01306 mM/min and 0.01742 mM/min and 0.01281 mM/min
initial velocity vo (c(mupirocin) 2.5 mM, c(ATP) 5.0 mM): 0.02499 mM/min and 0.026 mM/min and 0.02496 mM/min
initial velocity vo (c(mupirocin) 2.5 mM, c(ATP) 10.0 mM): 0.04221 mM/min and 0.04045 mM/min and 0.04296 mM/min
initial velocity vo (c(mupirocin) 2.5 mM, c(ATP) 20.0 mM): 0.05896 mM/min and 0.06416 mM/min and 0.05964 mM/min
initial velocity vo (c(mupirocin) 2.5 mM, c(Ile) 50.0 μM): 0.00279 mM/min and 0.00348 mM/min and 0.00209 mM/min
initial velocity vo (c(mupirocin) 5.0 mM, c(ATP) 0.5 mM): 0.00206 mM/min and 0.00219 mM/min and 0.0025 mM/min
initial velocity vo (c(mupirocin) 5.0 mM, c(ATP) 1.0 mM): 0.00362 mM/min and 0.00342 mM/min and 0.00337 mM/min
initial velocity vo (c(mupirocin) 5.0 mM, c(ATP) 2.5 mM): 0.00795 mM/min and 0.00842 mM/min and 0.00825 mM/min
initial velocity vo (c(mupirocin) 5.0 mM, c(ATP) 5.0 mM): 0.01509 mM/min and 0.0154 mM/min and 0.01576 mM/min
initial velocity vo (c(mupirocin) 5.0 mM, c(ATP) 10.0 mM): 0.02771 mM/min and 0.02665 mM/min and 0.0265 mM/min
initial velocity vo (c(mupirocin) 5.0 mM, c(ATP) 20.0 mM): 0.04308 mM/min and 0.04226 mM/min
initial velocity vo (c(mupirocin) 5.0 mM, c(Ile) 50.0 μM): 0.00223 mM/min and 0.00239 mM/min and 0.00197 mM/min
initial velocity vo (c(mupirocin) 10.0 mM, c(Ile) 50.0 μM): 0.00094 mM/min and 0.00075 mM/min and 0.00127 mM/min
